Legend:
Experiment in all cases: relative viability (nuclei count vs DMSO), 5 days (fraction); higher = more cells survive
XMD13-2 + Lapatinib = compound: C1CC1C(=O)NC2=NNC3=C2C=CC(=C3)C4=CC(=CC=C4)C(=O)NC5CC5 [XMD13-2] + CS(=O)(=O)CCNCc1ccc(-c2ccc3ncnc(Nc4ccc(OCc5cccc(F)c5)c(Cl)c4)c3c2)o1 [Lapatinib] (partner 2 µM)
How it was run: (§1)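 Five library-drug doses in √10 steps were combined with a fixed anchor-drug dose, or a single drug was given alone, by pin tool to lung cancer cell lines in 1536-well plates the day after seeding. Nuclei were stained and counted after 5 days. Relative viability is the nuclei count in treated wells over that in vehicle wells, taken as the median of duplicate plates.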

XMD13-2 + Olaparib = compound: C1CC1C(=O)NC2=NNC3=C2C=CC(=C3)C4=CC(=CC=C4)C(=O)NC5CC5 [XMD13-2] + O=C(c1cc(Cc2n[nH]c(=O)c3ccccc23)ccc1F)N1CCN(C(=O)C2CC2)CC1 [Olaparib] (partner 8 µM)
How it was run: as §1

XMD13-2 + Linsitinib = compound: C1CC1C(=O)NC2=NNC3=C2C=CC(=C3)C4=CC(=CC=C4)C(=O)NC5CC5 [XMD13-2] + C[C@]1(O)C[C@@H](c2nc(-c3ccc4ccc(-c5ccccc5)nc4c3)c3c(N)nccn32)C1 [Linsitinib] (partner 1 µM)
How it was run: as §1

XMD13-2 + Decitabine = compound: C1CC1C(=O)NC2=NNC3=C2C=CC(=C3)C4=CC(=CC=C4)C(=O)NC5CC5 [XMD13-2] + Nc1ncn([C@H]2C[C@H](O)[C@@H](CO)O2)c(=O)n1 [Decitabine] (partner 2 µM)
How it was run: as §1

Row | Cell Line | relative viability (XMD13-2 + Lapatinib; first compound 0.05 µM) | relative viability (XMD13-2 + Lapatinib; first compound 0.1581 µM) | relative viability (XMD13-2 + Lapatinib; first compound 0.5 µM) | relative viability (XMD13-2 + Lapatinib; first compound 1.581 µM) | relative viability (XMD13-2 + Lapatinib; first compound 5 µM) | relative viability (XMD13-2 + Olaparib; first compound 0.05 µM) | relative viability (XMD13-2 + Olaparib; first compound 0.1581 µM) | relative viability (XMD13-2 + Olaparib; first compound 0.5 µM) | relative viability (XMD13-2 + Olaparib; first compound 5 µM) | relative viability (XMD13-2 + Linsitinib; first compound 0.05 µM) | relative viability (XMD13-2 + Linsitinib; first compound 0.1581 µM) | relative viability (XMD13-2 + Linsitinib; first compound 0.5 µM) | relative viability (XMD13-2 + Linsitinib; first compound 1.581 µM) | relative viability (XMD13-2 + Linsitinib; first compound 5 µM) | relative viability (XMD13-2 + Decitabine; first compound 0.05 µM) | relative viability (XMD13-2 + Decitabine; first compound 0.1581 µM) | relative viability (XMD13-2 + Decitabine; first compound 0.5 µM) | relative viability (XMD13-2 + Decitabine; first compound 5 µM) | relative viability (XMD13-2 + Olaparib; first compound 1.581 µM) | relative viability (XMD13-2 + Decitabine; first compound 1.581 µM)
1 | NCI-H2405 | 1.18 | 1 | 0.95 | 0.957 | 1.09 | 0.931 | 0.874 | 0.931 | 0.843 | 0.936 | 0.975 | 0.958 | 0.939 | 1.03 | 0.796 | 0.731 | 0.73 | 0.673 |  | 
2 | NCI-H3122 | 1.04 | 1.03 | 0.99 | 0.982 | 0.848 | 0.726 | 0.649 | 0.697 | 0.629 | 1.02 | 1.01 | 1.04 | 1.06 | 0.951 | 0.403 | 0.439 | 0.414 | 0.395 | 0.702 | 0.372
3 | PC-3 [JPC-3] | 0.453 | 0.467 | 0.437 | 0.498 | 0.426 | 1.16 | 1.12 | 1.12 | 1.05 | 0.915 | 0.961 | 1.01 | 0.906 | 1.01 | 0.794 | 0.892 | 0.851 | 0.842 |  | 
4 | PC-14 | 0.38 | 0.324 | 0.39 | 0.337 | 0.345 | 0.299 | 0.259 | 0.266 | 0.467 | 0.986 | 1.04 | 0.958 | 0.878 | 0.927 | 0.239 | 0.229 | 0.188 | 0.254 | 0.271 | 0.193
5 | RERF-LC-KJ | 0.912 | 0.841 | 0.858 | 0.816 | 0.78 | 0.971 | 0.917 | 0.928 | 0.985 | 0.916 | 0.89 | 0.947 | 0.817 | 0.871 | 0.813 | 0.747 | 0.711 | 0.713 | 0.983 | 0.702
6 | SK-LU-1 | 1.14 | 0.97 | 0.971 | 0.707 | 0.536 | 0.499 | 0.444 | 0.514 | 0.422 | 1.1 | 1.19 | 1.45 | 0.929 | 1.14 | 0.569 | 0.601 | 0.746 | 0.628 | 0.444 | 0.616
7 | SK-MES-1 | 0.578 | 0.461 | 0.519 | 0.477 | 0.514 | 0.906 | 0.646 | 0.804 | 0.761 | 1.11 | 1.03 | 1.01 | 1.01 | 1.16 | 0.429 | 0.409 | 0.373 | 0.455 | 0.73 | 0.339
8 | SW 1573 | 1.13 | 1.2 | 1.28 | 1.06 | 1.1 | 0.66 | 0.479 | 0.497 | 0.287 | 0.82 | 0.745 | 0.849 | 0.71 | 0.577 | 0.775 | 0.464 | 0.608 | 0.431 | 0.395 | 0.498
